Patent US5149859A, “Naphthalene derivatives” (Teijin Limited, priority 1989, dated 1992)
Read-outs that look alike come from different tables or passages of the source.

Experiments:
Assay type in all cases: cell-based
lipoxygenase [1] = assay: Activity of inhibiting lipoxygenase production in human whole blood (Table 1-1); settings: A23187 25 μM, 15 min
Method: Evaluation of activity of inhibiting lipoxygenase production in human whole blood Into 2 ml of a heparin-treated vein blood of a healthy person without administration of a drug was added 2 μl of the DMSO solution containing the test sample of the sulfide ketone derivative listed in Table 1-1 as the drug to be tested (final 10^-5 M). After treatment at 37° C. for 5 minutes, 10 μl of a DMSO solution of A23187 was added (final 25 μM) to carry out the treatment at 37° C. for 15 minutes, followed by ice-cooling. As the internal standard substance for quantitation, 10 μl of a DMSO solution of 100 ng of 15-HETE was added, and then 0.8 ml of acetonitrile was added and the precipitates formed were removed by centrifugation. LTB4, 5-HETE, 12-HETE in the supernatant were separated and quantitated. The results are shown in Table 1-1 as the lipoxygenase production inhibitory ratio. | *For only this compound, the results are shown in "× 10^-4

lipoxygenase [2] = biological target: T1, lipoxygenase (Rattus norvegicus, UniProt P12527); assay: Activity of inhibiting lipoxygenase production in basophilic leukemia (RBL-1) cells (Table 3-2); settings: 0.25 h, arachidonic acid 50 μg, A23187 25 μM, read-out: Inhibitory ratio (%) LTB4; for inhibition at 1 µM: 10^-6 M; for inhibition at 0.1 µM: 10^-7 M
T1 construct: A 5×10^6 amount cells of RBL-1 were used; endogenous in cells; host or cells: RBL-1 (basophilic leukemia cells)
T1 sequence (P12527 1-673): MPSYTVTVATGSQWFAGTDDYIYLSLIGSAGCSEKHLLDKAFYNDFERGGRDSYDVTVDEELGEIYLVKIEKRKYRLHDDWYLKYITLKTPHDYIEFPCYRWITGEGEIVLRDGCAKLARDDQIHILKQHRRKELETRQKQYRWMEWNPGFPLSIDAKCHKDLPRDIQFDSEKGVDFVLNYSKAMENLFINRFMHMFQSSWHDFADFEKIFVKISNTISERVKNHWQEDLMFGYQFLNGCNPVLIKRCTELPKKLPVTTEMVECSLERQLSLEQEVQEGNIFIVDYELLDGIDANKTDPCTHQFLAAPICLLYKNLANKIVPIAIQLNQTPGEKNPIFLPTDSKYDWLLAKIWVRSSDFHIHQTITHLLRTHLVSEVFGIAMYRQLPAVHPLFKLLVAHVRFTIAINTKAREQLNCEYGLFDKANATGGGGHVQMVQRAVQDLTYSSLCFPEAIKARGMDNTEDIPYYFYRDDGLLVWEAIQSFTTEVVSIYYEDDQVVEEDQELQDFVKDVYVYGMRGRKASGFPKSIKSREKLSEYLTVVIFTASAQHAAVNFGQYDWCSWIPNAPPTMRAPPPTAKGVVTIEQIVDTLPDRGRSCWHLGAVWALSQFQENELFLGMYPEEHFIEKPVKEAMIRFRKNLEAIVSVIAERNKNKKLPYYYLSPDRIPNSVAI
Method: Evaluation of activity of inhibiting lipoxygenase production […] (RBL-1) cells
A 5×10^6 amount cells of RBL-1 were used and the DMSO solution of each compound listed in Table 3-2 was added thereto so that the final concentration was obtained. After incubation at 37° C. for 5 minutes, 50 μg of arachidonic acid and 25 μM of calcium ionophore (A23187) were added thereto, followed by incubating at 37° C. for 15 minutes. The extraction was carried out after the reaction was completed. The product was determined by reversed phase HPLC.

lipoxygenase [3] = assay: Activity of inhibiting lipoxygenase production in human whole blood (Table 2-1); settings: final 10^-4 M, 37° C., 15 min, 100 µM; for Inhibitory ratio (%) 12-HETE: A23187 25 μM; for Inhibitory ratio (%) 5-HETE / Inhibitory ratio (%) LTB4: A23187 25 μm
Method: Evaluation of activity of inhibiting lipoxycenase production in human whole blood Into 2 ml of a heparin-treated vein blood of a healthy person without administration of a drug was added 2 μl of the DMSO solution of each compound listed in Table 2-1 (final 10^-4 M). After treatment at 37° C. for 5 minutes, 10 μl of a DMSO solution of A23187 was added (final 25 μm) to carry out the treatment at 37° C. for 15 minutes, followed by ice-cooling. As the internal standard substance for quantitation, 10 μl of a DMSO solution of 100 ng of 15-HETE was added, and then 0.8 ml of acetonitrile was added and the precipitates formed were removed by centrifugation. LTB4, 5-HETE, 12-HETE in the supernatant were separated and quantitated. The results are shown in Table 2-1 as a production inhibitory ratio of LTB4.

lipoxygenase [4] = biological target: T2, lipoxygenase (Homo sapiens, UniProt P09917); assay: Activity of inhibiting lipoxygenase production in human whole blood (Table 3-1); settings: 0.25 h, final 10^-5 M, A23187 25 μM, 37° C.
T2 construct: heparin-treated vein blood of a healthy person without administration of a drug; from tissue; host or cells: human heparinised venous whole blood
T2 sequence (P09917 1-674): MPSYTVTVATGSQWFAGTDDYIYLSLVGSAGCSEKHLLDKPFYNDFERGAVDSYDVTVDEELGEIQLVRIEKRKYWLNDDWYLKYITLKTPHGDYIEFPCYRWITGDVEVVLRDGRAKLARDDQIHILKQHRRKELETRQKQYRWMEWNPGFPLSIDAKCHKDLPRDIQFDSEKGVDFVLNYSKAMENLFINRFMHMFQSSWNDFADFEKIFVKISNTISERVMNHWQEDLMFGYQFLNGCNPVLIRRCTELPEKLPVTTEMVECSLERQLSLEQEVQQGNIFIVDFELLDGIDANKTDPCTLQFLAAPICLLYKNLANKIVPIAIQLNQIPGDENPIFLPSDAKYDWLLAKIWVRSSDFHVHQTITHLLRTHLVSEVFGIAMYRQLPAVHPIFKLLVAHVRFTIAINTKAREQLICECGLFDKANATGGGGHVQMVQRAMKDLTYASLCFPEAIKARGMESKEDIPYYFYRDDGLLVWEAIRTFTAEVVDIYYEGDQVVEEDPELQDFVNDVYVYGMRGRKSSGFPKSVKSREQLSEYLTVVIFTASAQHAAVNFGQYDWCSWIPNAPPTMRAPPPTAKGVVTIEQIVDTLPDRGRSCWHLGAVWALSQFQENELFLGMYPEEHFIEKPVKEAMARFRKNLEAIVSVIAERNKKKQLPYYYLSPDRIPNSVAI
Method: Evaluation of activity of inhibiting lipoxygenase production in human whole blood
Into 1 ml of a heparin-treated vein blood of a healthy person without administration of a drug was added 1 μl of the DMSO solution of each compound listed in Table 3-1 (final 10^-5 M). After treatment at 37° C. for 5 minutes, 5 μl of a DMSO solution of calcium ionophone (A23187, 25 μM) was added to carry out the treatment at 37° C. for 15 minutes, followed by ice-cooling. As the internal standard substance for quantitation, 10 μl of a DMSO solution of 100 ng of 15-HETE was added, then 0.8 ml of acetonitrile was added, and the precipitates formed were removed by centrifugation. LTB4, 5-HETE in the supernatant were separated and quantitated, and the results are shown as the production inhibitory ratio of LTB4, etc. in Table 3-1.

[5] = footnote: results shown in × 10^-4 (only this compound)
[6] = read-out: Inhibitory ratio (%) 5-HETE
[7] = read-out: Inhibitory ratio (%) LTB4

COC(=O)CCCC(Sc1ccc2cc(OC)ccc2c1)C(C)=NO (stereo not drawn) [Example 1-4]
Inhibitory ratio (%) 5-HETE (lipoxygenase [1]; [5]): 43%
Inhibitory ratio (%) 12-HETE (lipoxygenase [1]; [5]): 29%

CON=C(CSc1ccc2cc(OC)ccc2c1)CC(=O)OC [Example 1-6, methyl 4-(6-methoxy-2-naphthylthio)-3-methoxyiminobutanoate]
Inhibitory ratio (%) 5-HETE (lipoxygenase [1]; final 10^-5 M, 37° C., 10 µM): 29%
Inhibitory ratio (%) LTB4 (lipoxygenase [1]; final 10^-5 M, 37° C., 10 µM): 37%

COC(=O)CCC(CSc1ccc2cc(O)ccc2c1)=NO [Example 1-11, methyl 5-(6-hydroxy-2-naphthylthio)-4-hydroxyiminopentanoate]
Inhibitory ratio (%) 5-HETE (lipoxygenase [1]; final 10^-5 M, 37° C., 10 µM): 56%
Inhibitory ratio (%) 12-HETE (lipoxygenase [1]; final 10^-5 M, 37° C., 10 µM): 28%
Inhibitory ratio (%) LTB4 (lipoxygenase [1]; final 10^-5 M, 37° C., 10 µM): 64%

COC(=O)CCCC(=O)CSc1ccc2cc(O)ccc2c1 [Example 1-12, methyl 6-(6-hydroxy-2-naphthylthio)-5-oxohexanoate]
inhibition at 1 µM (lipoxygenase [2]): 53%
inhibition at 0.1 µM (lipoxygenase [2]): 27%
inhibition at 0.01 µM (lipoxygenase [2]; 10^-8 M): 28%
Inhibitory ratio (%) 5-HETE (lipoxygenase [1]; final 10^-5 M, 37° C., 10 µM): 6%
Inhibitory ratio (%) 12-HETE (lipoxygenase [1]; final 10^-5 M, 37° C., 10 µM): 17%
Inhibitory ratio (%) LTB4 (lipoxygenase [1]; final 10^-5 M, 37° C., 10 µM): 2%

O=C(O)CCCC(=O)CSc1ccc2cc(O)ccc2c1 [Example 1-14, 6-(6-hydroxy-2-naphthylthio)-5-oxohexanoic acid]
Inhibitory ratio (%) 5-HETE (lipoxygenase [1]; final 10^-5 M, 37° C., 10 µM): 49%
Inhibitory ratio (%) 12-HETE (lipoxygenase [1]; final 10^-5 M, 37° C., 10 µM): 20%
Inhibitory ratio (%) LTB4 (lipoxygenase [1]; final 10^-5 M, 37° C., 10 µM): 37%

COC(=O)CCCC(=O)C(=O)c1ccc2cc(O)ccc2c1 [Example 2-4, methyl 6-(6-hyerocy-2-naphthyl)-5,6-dioxohexanoate]
Inhibitory ratio (%) 12-HETE (lipoxygenase [3]): 3%
Inhibitory ratio (%) 5-HETE (lipoxygenase [3]): 81%
Inhibitory ratio (%) LTB4 (lipoxygenase [3]): 78%

COC(=O)CCCC(=NO)C(=NO)c1ccc2cc(O)ccc2c1 [Example 2-5, methyl 6-(6-hydroxy-2-naphthyl)-5,6-dihydroxyiminohexanoate]
Inhibitory ratio (%) 12-HETE (lipoxygenase [3]): 4%
Inhibitory ratio (%) 5-HETE (lipoxygenase [3]): 78%
Inhibitory ratio (%) LTB4 (lipoxygenase [3]): 93%

COC(=O)CCCC(=NO)C(=O)c1ccc2cc(O)ccc2c1 [Example 2-9, methyl 6-(6-hydroxy-2-naphthyl)-5-hydroxvimino-6-oxohexanoate]
Inhibitory ratio (%) 12-HETE (lipoxygenase [3]): 27%
Inhibitory ratio (%) 5-HETE (lipoxygenase [3]): 77%
Inhibitory ratio (%) LTB4 (lipoxygenase [3]): 66%

COC(=O)CCCC(=O)N(O)c1ccc2ccccc2c1O [Example 3-2, N-hydroxy-N-(1-hydroxy-2-naphthyl)-4-methoxycarbonylbutanamide]
inhibition at 10 µM (lipoxygenase [4]; [6]): 80%

O=C(O)CCCC(=O)N(O)c1ccc2ccccc2c1O [Example 3-3, N-hydroxy-N-(1-hydroxy-2-naphthyl)-4-carboxybutanamide]
inhibition at 1 µM (lipoxygenase [2]): 35%
inhibition at 0.1 µM (lipoxygenase [2]): 20%

COC(=O)CCCCC(=O)N(O)c1ccc2ccccc2c1O [Example 3-4, N-hydroxy-N-(1-hydroxy-2-naphthyl)-5-methoxycarbonylpentanamide]
inhibition at 10 µM (lipoxygenase [4]; [6]): 38%
inhibition at 10 µM (lipoxygenase [4]; [7]): 45%

COC(=O)CCCCCC(=O)N(O)c1ccc2ccccc2c1O [Example 3-5, N-hydroxy-N-(1-hydroxy-2-naphthyl)-6-methoxycarbonylhexanamide]
inhibition at 10 µM (lipoxygenase [4]; [6]): 40%
inhibition at 10 µM (lipoxygenase [4]; [7]): 39%

COC(=O)COCC(=O)N(O)c1ccc2ccccc2c1O [Example 3-6, N-hydroxy-N-(1-hydroxy-2-naphthyl)-4-methoxycarbonyl-3-oxabutanamide]
inhibition at 10 µM (lipoxygenase [4]; [6]): 18%
inhibition at 10 µM (lipoxygenase [4]; [7]): 24%

COC(=O)CCC(=O)N(O)Cc1ccc2ccccc2c1 [Example 3-7, N-hydroxy-N-(2-naphthylmethyl)-3-methoxycarbonylpropionamide]
inhibition at 10 µM (lipoxygenase [4]; [6]): 59%
inhibition at 10 µM (lipoxygenase [4]; [7]): 71%

COC(=O)CCCC(=O)N(O)Cc1ccc2ccccc2c1 [Example 3-8, N-hydroxy-N-(2-naphthylmethyl)-4methoxycarbonylbutanamide]
inhibition at 10 µM (lipoxygenase [4]; [6]): 59%
inhibition at 10 µM (lipoxygenase [4]; [7]): 60%

COC(=O)CCCC(=O)N(O)Cc1ccc2ccccc2c1OC [Example 3-9, N-hydroxy-N-(1-methoxy-2-naphthylmethyl)-4-methoxycarbonylbutanamide]
inhibition at 10 µM (lipoxygenase [4]; [6]): 27%
inhibition at 10 µM (lipoxygenase [4]; [7]): 40%

COC(=O)c1cccc(C(=O)N(O)c2ccc3ccccc3c2O)c1 [Example 3-10, N-hydroxy-N-(1-hydroxy-2-naphthyl)-3-methoxycarbonylbenzamide]
inhibition at 10 µM (lipoxygenase [4]; [6]): 45%
inhibition at 10 µM (lipoxygenase [4]; [7]): 63%
